Measurements as given in patent publication US20050009023A1, “Glucocorticoid-induced receptor and methods of use” (priority 2001, published 2005).

How the values were obtained:
[1] = tested on: GIR mRNA in rat prefrontal cortex; assay: GIR mRNA expression following chronic amphetamine administration (competitive RT-PCR); type: in vivo; conditions: for GIR mRNA levels in prefrontal cortex: mean±SE, n=6
Protocol: (§1) GIR mRNA Expression Following Chronic Amphetamine Administration. Male Sprague-Dawley rats (200-250g, Harlan Sprague-Dawley Laboratories, Indianapolis, Ind.) received subcutaneous injection of either d-amphetamine (AMPH) (2.5 mg/kg) or saline (1 ml/kg) in their home cages once daily for 5 consecutive days (days 1-5). On day 9, four days following completion of this pre-treatment regimen, all animals were transferred to Residential Activity Chambers (RACs) (Segal and Kuczenski, 1987; Richtand et al., 2000), and received saline injection (1 ml/kg) on days 10 and 11 to measure conditioned response to injection. On day 12, seven days following completion of the pre-treatment regimen, all rats received AMPH (2.5 mg/kg) and locomotor activity was determined by photobeam monitoring for 150 minutes following injection. Locomotor activity is expressed as crossovers, defined as the number of times the animal crosses into any of four quadrants subdividing the enclosure. All animals were sacrificed by decapitation 4 hours following injection and total RNA was extracted from prefrontal cortex for determination of GIR mRNA expression. In a separate experiment, rats were injected with either AMPH (2.5 mg/kg) or saline (1 ml/kg) for 5 consecutive days, and sacrificed by decapitation 7 days after the last injection without the final AMPH challenge. Thus, four groups were generated: SAL-AMPH (Saline×5 days and AMPH at challenge), AMPH-AMPH (AMPH×5 days and AMPH at challenge), SAL (Saline×5 days), and AMPH (AMPH×5 days).
Construction of Competitor DNA and Quantitative RT-PCR. To construct the mutant template for competitive PCR, a 20 bp GIR sequence (5′-[…]-3′, 1213-1232 bp in FIG. 1; SEQ ID NO: 18) was incorporated into the upstream primer so that a rat GIR cDNA fragment was amplified by RT-PCR using the chimeric upstream primer (5′-[…]-3′, 1213-1232 bp in FIG. 1; SEQ ID NO:19) and the downstream primer (5′-CGGCCACAGTGGGTTCCAC-3′, 1575-1557 in FIG. 1; SEQ ID NO:13). The 262 bp PCR product was subcloned into pGEM-T vector (Promega, Madison, Wis.). The plasmid DNA was purified (Qiagen, Valencia, Calif.) and insert was verified by DNA sequencing. A fragment containing the mutant rat GIR template (262 bp) was released by EcoRI digestion and purified by agarose gel electrophoresis. DNA concentration was determined spectrophotometrically. Serial dilutions of mutant template were prepared.
The amount of GIR mRNA was quantitated by competitive RT-PCR as described previously (Miao et al., 2000). Briefly, reverse transcription was performed with 2 μg of total RNA using a non-specific random hexamer primer (Promega, Madsion, Wis.). One μl of first strand cDNA was mixed with known amounts of linearized competitor DNA ranging from […], and subjected to co-amplification with GIR-specific primers (5′-[…]-3′, 1213-1232 bp, SEQ ID NO:IS; and 5′-CGGCCACAGTGGGTTCCAC-3′, 1575-1557 bp in FIG. 1, SEQ ID NO:14). PCR was run for 30 cycles of 94° C./1 min, 60° C./2 min 72° C./3 min, and the PCR products were electrophoresed on 1.2% agarose gel. The intensities of bands, corresponding to the products from the GIR mRNA and the competitor with 101-bp size difference, was analyzed densitometrically by BioImage system combined with NIH software (Bio-Rad, Hercules, Calif.). The intensity ratios between the two bands were logarithmically plotted against the known initial input of competitor template, and the amount of GIR mRNA in the total RNA samples was calculated by linear regression. […]

Male Sprague-Dawley rats = assay: Locomotor activity (crossovers) after amphetamine challenge, behavioral sensitization; type: in vivo, rat; conditions: AMPH 2.5 mg/kg challenge, mean±SE
Protocol: as §1

C[C@H](N)Cc1ccccc1 [amphetamine, D-Amphetamine]
GIR mRNA levels in prefrontal cortex, increase of AMPH-AMPH rats compared to SAL-AMPH rats ([1]; AMPH 2.5 mg/kg s.c. x5 days, AMPH challenge 7 days after, sacrificed 4 hours after injection, n=6, P<0.05): 1.38 fold
GIR mRNA levels in prefrontal cortex, increase of AMPH rats compared to SAL rats ([1]; AMPH 2.5 mg/kg x5 days, no challenge injection, 7 days after last injection, n=6, P<0.05): 1.70 fold
GIR mRNA levels in prefrontal cortex ([1]; AMPH rats (AMPH x5 days, no challenge), 7 days after amphetamine ceased): 3.65±0.22 fg/100 ng total RNA
GIR mRNA levels in prefrontal cortex ([1]; AMPH-AMPH rats (AMPH x5 days and AMPH at challenge), 2.5 mg/kg s.c.): 2.97(±0.26 fg/100 ng total RNA
GIR mRNA levels in prefrontal cortex ([1]; SAL-AMPH rats (saline x5 days and AMPH 2.5 mg/kg at challenge)): 2.27(±0.22 fg/100 ng total RNA
locomotion at 12-60 min post-injection (focused stereotypy phase) (Male Sprague-Dawley rats; AMPH-AMPH rats, n=6, P<0.0001): 50.20±12.63 crossovers/12-60 min
locomotion at 60-150 min (post-stereotypy locomotion phase) (Male Sprague-Dawley rats; AMPH-AMPH rats, n=6, P<0.05): 496.67±70.28 crossovers/60-150min
locomotion at 12-60 min post-injection (focused stereotypy phase) (Male Sprague-Dawley rats; SAL-AMPH rats, n=6): 286.00±27.57 crossovers/12-60 min
locomotion at 60-150 min (post-stereotypy locomotion phase) (Male Sprague-Dawley rats; SAL-AMPH rats, n=6): 312.25±29.17 crossovers/60-150min
